Laboratory results reported in patent US20220041623A1, “INDOLE MACROCYCLIC DERIVATIVE, PREPARATION METHOD THEREOF AND APPLICATION THEREOF IN MEDICINE” (JIANGSU HENGRUI MEDICINE CO., LTD., priority 2018, published 2022).
pIC50, pKi: −log10 of the molar value. Read-outs that look alike come from different tables or passages of the source.

Tests used:
MV-4-11 cells = assay: Cell proliferation experiment (intracellular ATP, CellTiter-Glo), MV-4-11; type: cell-based; conditions: Homo sapiens, MV4-11, 72 h, read-out: MV-4-11 IC50
Description: (§1) The following method evaluates the inhibition effect of the compound of the present invention on the proliferation of AMO-1 and MV-4-11 cells according to IC50 value by detecting intracellular ATP content. The experimental method is briefly described as follows.
(§2) AMO-1 cells were cultured in RPMI1640 medium (containing 20% FBS), and MV-4-11 cells were cultured in IMDM medium (containing 10% FBS). The cells were passaged for 2 to 3 times a week, with a passage ratio of 1:4 or 1:6. During the passage, the cells were transferred to a centrifuge tube and centrifuged at 1200 rpm for 3 minutes. The supernatant was discarded, and fresh medium was added to resuspend the cells. […] 100 μL of complete medium was added to the periphery of the 96-well plate. The plate was incubated in an incubator for 24 hours (37° C., 5% CO2).
(§3) The test sample was diluted to 20 mM with DMSO, and then diluted to 9 concentrations by diluting in 4-fold gradient. Blank and control wells were set. 5 μL of the test compound solution formulated as gradient concentration was added to 95 μL of fresh medium. 10 µL of the above drug-containing medium solution was added to the plate. The plate was incubated in an incubator for 3 days (37° C., 5% CO2). In the 96-well cell culture plate, 50 μL of CellTiter-Glo reagent was added to each well, and the plate was left to stand in the dark at room temperature for 5 to 10 minutes. The chemiluminescence signal value was read in PHERAstar, and the data was processed by GraphPad software.

MCL-1 protein = target: T1, MCL-1 protein (Homo sapiens, UniProt Q07820); assay: MCL-1 protein binding experiment (HTRF, MCL-1/Bim); conditions: for inhibition at up to 10 µM: HTRF MCL-1/Bim binding, initial concentration 10 μM, read-out: Maximum inhibition rate (%); for pKi: HTRF, 0.1 nM His-MCL-1, 2.5 nM bio-Bim, room temperature
T1 construct: Bim peptide bought from R&D, 3526/1 NA
T1 sequence (Q07820 171-327): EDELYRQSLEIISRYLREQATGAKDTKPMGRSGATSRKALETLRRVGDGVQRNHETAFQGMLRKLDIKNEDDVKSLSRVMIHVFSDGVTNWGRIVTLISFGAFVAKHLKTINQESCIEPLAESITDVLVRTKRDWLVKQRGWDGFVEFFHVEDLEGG
Description: The following method was used to determine the binding ability of the compound of the present invention to MCL-1 protein. The experimental method is briefly described as follows.
MCL-1 inhibitors can bind to MCL-1 protein to prevent the binding of MCL-1 to Bim protein. The experiment evaluates the binding ability of MCL-1 inhibitor to MCL-1 protein by detecting the binding of MCL-1 to Bim protein through HTRF method, and the activity of the compound was evaluated according to the Ki value.
The mixture was incubated at room temperature for 2 hours, followed by the detection of fluorescence signals at 620 nm and 665 nm by PHERAstar. The data was processed by GraphPad software.

AMO-1 cells = assay: Cell proliferation experiment (intracellular ATP, CellTiter-Glo), AMO-1; type: cell-based; conditions: Homo sapiens, AMO1, 72 h, read-out: AMO-1 IC50
Description: as §1
1. AMO-1, human bone marrow plasmacytoma (Nanjing Cobioer Biosciences Co., Ltd., CBP60242)
as §2, §3

2C19 = target: T2, 2C19 (Homo sapiens, UniProt P33261); assay: Inhibition of human liver microsomal P450 subenzyme CYP2C19; type: in vitro ADME; conditions: human liver microsomes, (S)-mephenytoin metabolic site, 30 minutes incubation
T2 construct: Human liver microsomes (Corning Gentest, Cat No. 452161, Lot No. 6123001, 33 Donors); tissue Corning Gentest 452161; host or cells: human liver microsomes, pool of 33 donors
T2 sequence (P33261 whole entry): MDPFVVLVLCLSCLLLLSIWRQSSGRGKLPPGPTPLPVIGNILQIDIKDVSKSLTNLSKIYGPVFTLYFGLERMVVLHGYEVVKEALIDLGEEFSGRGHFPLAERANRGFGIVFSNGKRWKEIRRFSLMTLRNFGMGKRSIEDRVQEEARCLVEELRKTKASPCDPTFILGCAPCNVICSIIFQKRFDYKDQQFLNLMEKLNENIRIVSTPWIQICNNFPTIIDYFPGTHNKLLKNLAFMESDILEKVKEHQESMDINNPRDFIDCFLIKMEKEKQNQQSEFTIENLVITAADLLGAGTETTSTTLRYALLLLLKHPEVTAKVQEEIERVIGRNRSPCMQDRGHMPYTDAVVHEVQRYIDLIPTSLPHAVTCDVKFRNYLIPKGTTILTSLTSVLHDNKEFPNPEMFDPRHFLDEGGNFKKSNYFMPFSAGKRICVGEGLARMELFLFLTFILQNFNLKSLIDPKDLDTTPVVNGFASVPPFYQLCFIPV
Description: (§4) The inhibition effect of the compound of the present invention on the enzymatic activity of human liver microsomal P450 subenzymes CYP2C9 and 2C19 was determined by the following experimental method.
(§5) 6. CYP probe substrate for 2C9 (Diclofenac/4 μM, SIGMA, Cat No. D6899-10G) and CYP probe substrate for 2C19 ((S)-Mephenytoin/20 μM, J&K Scientific Ltd., CatNo. 303768); positive control inhibitor for 2C9 ([…], SIGMA, Cat No. 526-08-9) and positive control inhibitor for 2C19 (Ticlopidine, SIGMA, Cat No. T6654-1G).
(§6) 100 mM PBS buffer solution was formulated. 2.5 mg/mL microsome solution, 15 mM MgCl2 solution and 5 mM NADPH solution were formulated with the buffer solution. 30 mM stock solution was diluted with DMSO into a serial solution I with concentrations of 10 mM, 3 mM, 1 mM, 0.3 mM, 0.1 mM, 0.03 mM, […] and 0 mM. The above serial solution I was diluted for 200 times with the phosphate buffer solution (PBS) to obtain a serial test solution II (150, 50, 15, 5, 1.5, 0.15, 0.015, 0 μM). […]
(§7) The data were calculated by Graphpad Prism to obtain the IC50 values of the compound for the diclofenac metabolic site of CYP2C9 and (S)-mephenytoin metabolic site of 2C19. which are shown in Table 3.

CYP2C9 = target: T3, CYP2C9 (Homo sapiens, UniProt P11712); assay: Inhibition of human liver microsomal P450 subenzyme CYP2C9; type: in vitro ADME; conditions: human liver microsomes, diclofenac metabolic site, 30 minutes incubation; read-out: 2C9 IC50
T3 construct: Human liver microsomes (Corning Gentest, Cat No. 452161, Lot No. 6123001, 33 Donors); tissue Corning Gentest 452161; host or cells: human liver microsomes, pool of 33 donors
T3 sequence (P11712 whole entry): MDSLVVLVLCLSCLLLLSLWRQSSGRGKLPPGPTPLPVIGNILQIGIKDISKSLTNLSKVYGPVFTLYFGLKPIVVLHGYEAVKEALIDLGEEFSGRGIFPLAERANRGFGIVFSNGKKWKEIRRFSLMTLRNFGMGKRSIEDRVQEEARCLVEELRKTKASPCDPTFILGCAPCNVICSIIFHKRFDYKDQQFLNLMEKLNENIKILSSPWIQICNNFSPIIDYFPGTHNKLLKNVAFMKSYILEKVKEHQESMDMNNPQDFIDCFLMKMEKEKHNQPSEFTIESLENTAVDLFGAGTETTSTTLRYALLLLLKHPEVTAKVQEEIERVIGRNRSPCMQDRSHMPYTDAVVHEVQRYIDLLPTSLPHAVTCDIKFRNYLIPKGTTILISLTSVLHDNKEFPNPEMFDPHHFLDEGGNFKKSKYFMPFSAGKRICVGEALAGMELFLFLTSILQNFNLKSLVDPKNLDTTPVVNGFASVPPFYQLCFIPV
Description: as §4, §5, §6, §7

[1] = MV-4-11 cells, incubated 3 days, CellTiter-Glo
[2] = AMO-1 cells, incubated 3 days, CellTiter-Glo

Row | Compound | pIC50 (MV-4-11 cells; [1]) | inhibition at up to 10 µM (MCL-1 protein) [%] | pKi (MCL-1 protein) | pIC50 (AMO-1 cells; [2]) | pIC50 (MV-4-11 cells) | pIC50 (AMO-1 cells) | pIC50 (2C19) | pIC50 (CYP2C9)
1 | Cc1c(C(=O)O)n2c3ccc(Cl)c(c13)-c1c(nn(C)c1C)CSCc1cc(n(C)n1)CSc1cc(c3ccccc3c1)OCCC2 (single isomer, unassigned) [Example 2-1, (Ra)-17-Chloro-5,13,14,22-tetramethyl-28-oxa-2,9-dithia-5,6,12,13,24-pentaazaheptacyclo[27.7.1.1^4,7.0^11,15.0^16,21.0^20,24.0^30,35]octatriaconta-1(37),4(38),6,11,14,16,18,20,22,29,31,33,35-tridecaene-23-carboxylic acid] | 7.38 | 100 | 9.96 | 7.12 |  |  |  | 
2 | Cc1c(C(=O)O)n2c3ccc(Cl)c(c13)-c1c(nn(C)c1C)CSCc1cc(n(C)n1)CCc1cc(c3ccccc3c1)OCCC2 (single isomer, unassigned) [Example 4-1, (Ra)-17-Chloro-5,13,14,22-tetramethyl-28-oxa-9-thia-5,6,12,13,24-pentaazaheptacyclo[27.7.1.1^4,7.0^11,15.0^16,21.0^20,24.0^30,35]octatriaconta-1(37),4(38),6,11,14,16,18,20,22,29,31,33,35-tridecaene-23-carboxylic acid] |  | 100 | 9.82 |  | 7.41 | 7.43 |  | 
3 | Cc1c(C(=O)O)n2c3ccc(Cl)c(c13)-c1c(nn(C)c1C)CSCc1cc(n(C)n1)CSc1cc3c(c(c1)OCCC2)CCCC3 (single isomer, unassigned) [Example 7-1, (Ra)-17-Chloro-5,13,14,22-tetramethyl-28-oxa-2,9-dithia-5,6,12,13,24-pentaazaheptacyclo[27.7.1.1^4,7.0^11,15.0^16,21.0^20,24.0^30,35]octatriaconta-1(37),4(38),6,11,14,16,18,20,22,29,35-undecaene-23-carboxylic acid] | 7.15 | 99 | 9.13 | 7.15 |  |  |  | 
4 | Cc1c(C(=O)O)n2c3ccc(Cl)c(c13)-c1c(nn(C)c1C)CSCc1cc(n(C)n1)CCc1cc3c(c(c1)OCCC2)CCCC3 (single isomer, unassigned) [Example 8-1, (Ra)-17-Chloro-5,13,14,22-tetramethyl-28-oxa-9-thia-5,6,12,13,24-pentaazaheptacyclo[27.7.1.1^4,7.0^11,15.0^16,21.0^20,24.0^30,35]octatriaconta-1(37),4(38),6,11,14,16,18,20,22,29,35-undecaene-23-carboxylic acid] | 6.87 | 100 | 9.34 | 7.00 |  |  |  | 
5 | Cc1c(C(=O)O)n2c3ccc(Cl)c(c13)-c1c(nn(C)c1C)CSCc1cc(n(C)n1)CSc1cc(cc3c1CCC3)OCCC2 (single isomer, unassigned) [Example 12-1, (Ra)-17-Chloro-5,13,14,22-tetramethyl-28-oxa-2,9-dithia-5,6,12,13,24-pentaazaheptacyclo[27.6.1.1^4,7.0^11,15.0^16,21.0^20,24.0^30,35]heptatriaconta-1(36),4(37),6,11,14,16,18,20,22,29,31(35)-undecaene-23-carboxylic acid] | 7.44 | 100 | 9.62 | 7.47 |  |  | < 4.52 | < 4.52
6 | Cc1c(C(=O)O)n2c3ccc(Cl)c(c13)-c1c(nn(C)c1C)CSCc1cc(n(C)n1)CCc1cc3c(c(c1)OCCC2)CCCC3 [Example 8, 17-Chloro-5,13,14,22-tetramethyl-28-oxa-9-thia-5,6,12,13,24-pentaazaheptacyclo[27.7.1.1^4,7.0^11,15.0^16,21.0^20,24.0^30,35]octatriaconta-1(37),4(38),6,11,14,16,18,20,22,29,35-undecaene-23-carboxylic acid] |  | 100 | 9.26 |  |  |  |  | 
7 | Cc1c(C(=O)O)n2c3ccc(Cl)c(c13)-c1c(nn(C)c1C)CN(C)Cc1cc(n(C)n1)CSc1cc3c(c(c1)OCCC2)CCCC3 [Example 9, 17-Chloro-5,9,13,14,22-pentamethyl-28-oxa-2-thia-5,6,9,12,13,24-hexaazaheptacyclo[27.7.1.1^4,7.0^11,15.0^16,21.0^20,24.0^30,35]octatriaconta-1(37),4(38),6,11,14,16,18,20,22,29,35-undecaene-23-carboxylic acid] |  | 100 | 8.82 |  |  |  |  | 
8 | Cc1c(C(=O)O)n2c3ccc(Cl)c(c13)-c1c(nn3c1CCCC3)CSCc1cc(n(C)n1)CSc1cc(c3ccccc3c1)OCCC2 [Example 10, 21-Chloro-5,26-dimethyl-32-oxa-2,9-dithia-5,6,12,13,28-pentaazaoctacyclo[31.7.1.1^4,7.0^11,19.0^13,18.0^20,25.0^24,28.0^34,39]dotetraconta-1(41),4(42),6,11,18,20,22,24,26,33,35,37,39-tridecaene-27-carboxylic acid] |  | 101 | 8.10 |  |  |  |  | 
9 | Cc1c(C(=O)O)n2c3ccc(Cl)c(c13)-c1c(nn3c1CCCC3)CN(C)Cc1cc(n(C)n1)CSc1cc(c3ccccc3c1)OCCC2 [Example 11, 21-Chloro-5,9,26-trimethyl-32-oxa-2-thia-5,6,9,12,13,28-hexaazaoctacyclo[31.7.1.1^4,7.0^11,19.0^13,18.0^20,25.0^24,28.0^34,39]dotetraconta-1(41),4(42),6,11,18,20,22,24,26,33,35,37,39-tridecaene-27-carboxylic acid] |  | 100 | 8.52 |  |  |  |  | 
10 | Cc1c(C(=O)O)n2c3ccc(Cl)c(c13)-c1c(nn(C)c1C)CSCc1cc(n(C)n1)CSc1cc(cc3c1CCC3)OCCC2 [Example 12, 17-Chloro-5,13,14,22-tetramethyl-28-oxa-2,9-dithia-5,6,12,13,24-pentaazaheptacyclo[27.6.1.1^4,7.0^11,15.0^16,21.0^20,24.0^30,35]heptatriaconta-1(36),4(37),6,11,14,16,18,20,22,29,31(35)-undecaene-23-carboxylic acid] | 7.20 | 100 | 9.66 | 7.20 |  |  |  | 
